ChEMBL document CHEMBL5724806, “Unraveling interindividual differences and functional consequences of gut microbial metabolism of immunosuppressants” (2024)

How the values were obtained:
Format in all cases: ADME
[1] = (§1) The drug is tested on Lactobacillus reuteri strain: DSM20016 for biotransformation under microaerobic condition. The drug concentrations were measured over 6 timepoints collected between 0 and 12 hours of incubation by liquid-chromatography-coupled mass spectrometry (LC–MS); parameters: dose 5 uM, timepoint 0, 1.5, 3, 6, 9, 12 hours; settings: limosilactobacillus reuteri, 5 µM
[2] = (§2) The drug is tested on Odoribacter splanchnicus strain: DSM20712 for biotransformation under anaerobic condition. The drug concentrations were measured over 6 timepoints collected between 0 and 12 hours of incubation by liquid-chromatography-coupled mass spectrometry (LC–MS); parameters: dose 5 uM, timepoint 0, 1.5, 3, 6, 9, 12 hours; settings: 5 µM
[3] = as §2, with “the gut metagenome community of T-01 with ENA study accession number: PRJEB31790” for “Odoribacter splanchnicus strain: DSM20712”, “7” for “6”; parameters: dose 5 uM, timepoint 0, 0.75, 1.5, 3, 6, 9, 12 hours; settings: 5 µM
[4] = The drug is tested on Ruminococcus gnavus strain: ATCC29149 for biotransformation under anaerobic condition. The drug concentrations were measured over 6 timepoints collected between 0 and 12 hours of incubation by liquid-chromatography-coupled mass spectrometry (LC–MS); parameters: dose 5 uM, timepoint 0, 1.5, 3, 6, 9, 12 hours; settings: mediterraneibacter gnavus, 5 µM
[5] = as §2, with “the gut metagenome community of A-01 with ENA study accession number: PRJEB31790” for “Odoribacter splanchnicus strain: DSM20712”, “7” for “6”; parameters: dose 5 uM, timepoint 0, 0.75, 1.5, 3, 6, 9, 12 hours; settings: 5 µM
[6] = as §1, with “the gut metagenome community of A-03 with ENA study accession number: PRJEB31790” for “Lactobacillus reuteri strain: DSM20016”, “7” for “6”; parameters: dose 5 uM, timepoint 0, 0.75, 1.5, 3, 6, 9, 12 hours; settings: 5 µM
[7] = as §2, with “the gut metagenome community of A-06 with ENA study accession number: PRJEB31790” for “Odoribacter splanchnicus strain: DSM20712”, “7” for “6”; parameters: dose 5 uM, timepoint 0, 0.75, 1.5, 3, 6, 9, 12 hours; settings: 5 µM
[8] = as §2, with “the gut metagenome community of A-09 with ENA study accession number: PRJEB31790” for “Odoribacter splanchnicus strain: DSM20712”, “7” for “6”; parameters: dose 5 uM, timepoint 0, 0.75, 1.5, 3, 6, 9, 12 hours; settings: 5 µM
[9] = The drug is tested on Enterococcus faecalis strain: ATCC29212 for biotransformation under microaerobic condition. The drug concentrations were measured over 6 timepoints collected between 0 and 12 hours of incubation by liquid-chromatography-coupled mass spectrometry (LC–MS); parameters: dose 5 uM, timepoint 0, 1.5, 3, 6, 9, 12 hours; settings: 5 µM
[10] = The drug is tested on Lactobacillus fermentum strain: DSM20052 for biotransformation under anaerobic condition. The drug concentrations were measured over 6 timepoints collected between 0 and 12 hours of incubation by liquid-chromatography-coupled mass spectrometry (LC–MS); parameters: dose 5 uM, timepoint 0, 1.5, 3, 6, 9, 12 hours; settings: limosilactobacillus fermentum, 5 µM

Structure (SMILES)	Bacterial Biotransformation [1]	Bacterial Biotransformation [2]	Bacterial Biotransformation [3]	Bacterial Biotransformation [4]	Bacterial Biotransformation [5]	Bacterial Biotransformation [6]	Bacterial Biotransformation [7]	Bacterial Biotransformation [8]	Bacterial Biotransformation [9]	Bacterial Biotransformation [10]
CO[C@H]1C[C@@H]2CC[C@@H](C)[C@@](O)(O2)C(=O)C(=O)N2CCCC[C@H]2C(=O)O[C@H]([C@H](C)C[C@@H]2CC[C@@H](OCCO)[C@H](OC)C2)CC(=O)[C@H](C)/C=C(\C)[C@@H](O)[C@@H](OC)C(=O)[C@H](C)C[C@H](C)/C=C/C=C/C=C/1C [EVEROLIMUS]	Compound NOT metabolized	Compound NOT metabolized	Compound NOT metabolized	Compound NOT metabolized	Compound metabolized	Compound metabolized	Compound metabolized	Compound metabolized	Compound NOT metabolized	Compound NOT metabolized
NS(=O)(=O)c1cc(C(=O)O)c(NCc2ccco2)cc1Cl [FUROSEMIDE]	Compound NOT metabolized	Compound NOT metabolized	Compound NOT metabolized	Compound NOT metabolized	Compound NOT metabolized	Compound NOT metabolized	Compound NOT metabolized	Compound NOT metabolized	Compound NOT metabolized	Compound NOT metabolized
C[C@]12CCC(=O)C=C1CC[C@@H]1[C@@H]2[C@@H](O)C[C@@]2(C)[C@H]1CC[C@]2(O)C(=O)CO [HYDROCORTISONE]	Compound NOT metabolized	Compound NOT metabolized	Compound metabolized	Compound metabolized	Compound metabolized	Compound metabolized	Compound metabolized	Compound metabolized	Compound NOT metabolized	Compound NOT metabolized
CN(Cc1cnc2nc(N)nc(N)c2n1)c1ccc(C(=O)N[C@@H](CCC(=O)O)C(=O)O)cc1 [METHOTREXATE]	Compound NOT metabolized	Compound NOT metabolized	Compound NOT metabolized	Compound NOT metabolized	Compound NOT metabolized	Compound NOT metabolized	Compound metabolized	Compound metabolized	Compound NOT metabolized	Compound NOT metabolized
C[C@H]1C[C@@H]2[C@H]([C@@H](O)C[C@@]3(C)[C@H]2CC[C@]3(O)C(=O)CO)[C@@]2(C)C=CC(=O)C=C12 [METHYLPREDNISOLONE]	Compound NOT metabolized	Compound NOT metabolized	Compound NOT metabolized	Compound metabolized	Compound metabolized	Compound metabolized	Compound metabolized	Compound metabolized	Compound NOT metabolized	Compound NOT metabolized
COc1c(C)c2c(c(O)c1C/C=C(\C)CCC(=O)OCCN1CCOCC1)C(=O)OC2 [MYCOPHENOLATE MOFETIL]	Compound NOT metabolized	Compound NOT metabolized	Compound metabolized	Compound NOT metabolized	Compound metabolized	Compound metabolized	Compound metabolized	Compound metabolized	Compound metabolized	Compound NOT metabolized
COc1c(C)c2c(c(O)c1C/C=C(\C)CCC(=O)O)C(=O)OC2 [MYCOPHENOLIC ACID]	Compound NOT metabolized	Compound NOT metabolized	Compound NOT metabolized	Compound NOT metabolized	Compound NOT metabolized	Compound NOT metabolized	Compound NOT metabolized	Compound NOT metabolized	Compound NOT metabolized	Compound NOT metabolized
C[C@]12C=CC(=O)C=C1CC[C@@H]1[C@@H]2[C@@H](O)C[C@@]2(C)[C@H]1CC[C@]2(O)C(=O)CO [PREDNISOLONE]	Compound NOT metabolized	Compound NOT metabolized	Compound NOT metabolized	Compound metabolized	Compound metabolized	Compound metabolized	Compound metabolized	Compound metabolized	Compound NOT metabolized	Compound NOT metabolized
C[C@]12C=CC(=O)C=C1CC[C@@H]1[C@@H]2C(=O)C[C@@]2(C)[C@H]1CC[C@]2(O)C(=O)CO [PREDNISONE]	Compound NOT metabolized	Compound NOT metabolized	Compound metabolized	Compound metabolized	Compound metabolized	Compound metabolized	Compound metabolized	Compound metabolized	Compound NOT metabolized	Compound NOT metabolized
CNC(=C[N+](=O)[O-])NCCSCc1ccc(CN(C)C)o1 [RANITIDINE]	Compound NOT metabolized	Compound NOT metabolized	Compound NOT metabolized	Compound NOT metabolized	Compound NOT metabolized	Compound NOT metabolized	Compound metabolized	Compound metabolized	Compound metabolized	Compound NOT metabolized
CCC(C)(C)C(=O)O[C@H]1C[C@@H](C)C=C2C=C[C@H](C)[C@H](CC[C@@H]3C[C@@H](O)CC(=O)O3)[C@H]21 [SIMVASTATIN]	Compound NOT metabolized	Compound NOT metabolized	Compound NOT metabolized	Compound NOT metabolized	Compound NOT metabolized	Compound NOT metabolized	Compound NOT metabolized	Compound NOT metabolized	Compound metabolized	Compound NOT metabolized
CO[C@H]1C[C@@H]2CC[C@@H](C)[C@@](O)(O2)C(=O)C(=O)N2CCCC[C@H]2C(=O)O[C@H]([C@H](C)C[C@@H]2CC[C@@H](O)[C@H](OC)C2)CC(=O)[C@H](C)/C=C(\C)[C@@H](O)[C@@H](OC)C(=O)[C@H](C)C[C@H](C)/C=C/C=C/C=C/1C [SIROLIMUS]	Compound NOT metabolized	Compound NOT metabolized	Compound NOT metabolized	Compound NOT metabolized	Compound NOT metabolized	Compound metabolized	Compound metabolized	Compound metabolized	Compound metabolized	Compound NOT metabolized
C=CC[C@@H]1/C=C(\C)C[C@H](C)C[C@H](OC)[C@H]2O[C@@](O)(C(=O)C(=O)N3CCCC[C@H]3C(=O)O[C@H](/C(C)=C/[C@@H]3CC[C@@H](O)[C@H](OC)C3)[C@H](C)[C@@H](O)CC1=O)[C@H](C)C[C@@H]2OC.O [TACROLIMUS]	Compound NOT metabolized	Compound NOT metabolized	Compound metabolized	Compound NOT metabolized	Compound NOT metabolized	Compound metabolized	Compound metabolized	Compound metabolized	Compound NOT metabolized	Compound NOT metabolized
